In patent publication US8536354B2, “Steroidal ligands and their use in gene switch modulation” (Intrexon Corporation, priority 2008, dated 2013):
Where two headings read alike, the source gives them in different places.

Columns and labels:
[1] = biological target: wild-type Drosophila melanogaster EcR (DmEcR; GAL4-EcR DEF with VP16-RXR-USP chimera) (Drosophila melanogaster, UniProt P34021); assay: Two-hybrid gene switch assay, luciferase reporter, wild-type DmEcR, mouse NIH3T3 cells; format: cell-based
wild-type Drosophila melanogaster EcR (DmEcR; GAL4-EcR DEF with VP16-RXR-USP chimera), sequence (P34021 with tags, fused parts or gaps limits assumed): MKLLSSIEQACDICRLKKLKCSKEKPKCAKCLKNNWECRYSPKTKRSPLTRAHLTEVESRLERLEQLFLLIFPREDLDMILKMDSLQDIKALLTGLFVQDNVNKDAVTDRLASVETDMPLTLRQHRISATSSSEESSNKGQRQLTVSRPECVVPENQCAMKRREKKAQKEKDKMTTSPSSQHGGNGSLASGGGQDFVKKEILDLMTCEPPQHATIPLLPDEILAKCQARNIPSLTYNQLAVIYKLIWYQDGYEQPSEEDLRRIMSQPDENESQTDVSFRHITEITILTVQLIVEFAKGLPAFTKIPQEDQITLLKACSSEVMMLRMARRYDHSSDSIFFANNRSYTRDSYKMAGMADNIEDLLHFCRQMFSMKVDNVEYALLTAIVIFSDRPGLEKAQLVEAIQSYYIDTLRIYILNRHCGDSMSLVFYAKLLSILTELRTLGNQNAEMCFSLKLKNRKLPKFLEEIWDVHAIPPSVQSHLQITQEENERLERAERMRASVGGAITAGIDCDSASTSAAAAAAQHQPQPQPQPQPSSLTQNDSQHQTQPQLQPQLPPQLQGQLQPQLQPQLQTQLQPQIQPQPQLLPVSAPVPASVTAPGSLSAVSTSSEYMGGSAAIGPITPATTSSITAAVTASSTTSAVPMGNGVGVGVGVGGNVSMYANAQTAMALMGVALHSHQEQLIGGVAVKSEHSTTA

[2] = biological target: T1, TmEcR (GAL4-EcR DEF with VP16-RXR partner) (Tenebrio molitor, UniProt O02035); assay: Two-hybrid gene switch assay, luciferase reporter, TmEcR, mouse NIH3T3 cells
T1 sequence (O02035 194-491): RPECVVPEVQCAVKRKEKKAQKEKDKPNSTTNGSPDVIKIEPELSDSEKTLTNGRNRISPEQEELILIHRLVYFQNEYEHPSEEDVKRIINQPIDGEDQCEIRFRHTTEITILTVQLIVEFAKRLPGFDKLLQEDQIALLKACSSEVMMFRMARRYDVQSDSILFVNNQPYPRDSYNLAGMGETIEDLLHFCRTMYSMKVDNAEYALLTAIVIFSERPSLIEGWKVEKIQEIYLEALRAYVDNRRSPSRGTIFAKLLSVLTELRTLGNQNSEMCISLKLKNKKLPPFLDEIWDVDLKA
T1 sequence (P28704 1-520 partner): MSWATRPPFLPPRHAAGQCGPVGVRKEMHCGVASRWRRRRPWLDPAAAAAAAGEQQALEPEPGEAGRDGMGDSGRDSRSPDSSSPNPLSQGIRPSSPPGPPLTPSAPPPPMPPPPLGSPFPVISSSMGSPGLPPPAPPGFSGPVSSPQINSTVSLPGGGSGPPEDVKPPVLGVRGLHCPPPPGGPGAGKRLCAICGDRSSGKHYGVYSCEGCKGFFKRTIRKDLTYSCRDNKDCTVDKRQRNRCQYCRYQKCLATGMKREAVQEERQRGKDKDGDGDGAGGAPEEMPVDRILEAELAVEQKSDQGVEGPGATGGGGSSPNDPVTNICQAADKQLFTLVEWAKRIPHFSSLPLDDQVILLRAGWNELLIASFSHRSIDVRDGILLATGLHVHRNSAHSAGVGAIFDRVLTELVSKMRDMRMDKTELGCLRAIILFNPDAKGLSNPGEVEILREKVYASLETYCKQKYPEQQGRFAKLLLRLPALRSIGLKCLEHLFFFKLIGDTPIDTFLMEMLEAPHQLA

[3] = biological target: T2, BaEcR (GAL4-EcR DEF with VP16-RXR-USP chimera) (Bemisia tabaci, UniProt A0A6M3RDR8); assay: Two-hybrid gene switch assay, luciferase reporter, BaEcR, mouse NIH3T3 cells
T2 sequence (A0A6M3RDR8 115-530): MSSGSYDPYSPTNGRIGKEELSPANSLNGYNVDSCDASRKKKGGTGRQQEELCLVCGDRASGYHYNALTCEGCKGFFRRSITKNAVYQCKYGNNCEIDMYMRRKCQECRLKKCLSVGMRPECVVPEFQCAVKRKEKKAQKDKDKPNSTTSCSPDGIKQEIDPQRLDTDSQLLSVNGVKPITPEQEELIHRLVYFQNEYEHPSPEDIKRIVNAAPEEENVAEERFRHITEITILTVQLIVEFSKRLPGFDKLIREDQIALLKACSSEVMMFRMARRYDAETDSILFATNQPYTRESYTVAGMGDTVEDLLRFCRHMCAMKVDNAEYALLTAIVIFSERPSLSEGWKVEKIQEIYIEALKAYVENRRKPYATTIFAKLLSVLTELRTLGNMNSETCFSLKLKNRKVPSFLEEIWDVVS
T2 sequence (P28702 1-533 partner): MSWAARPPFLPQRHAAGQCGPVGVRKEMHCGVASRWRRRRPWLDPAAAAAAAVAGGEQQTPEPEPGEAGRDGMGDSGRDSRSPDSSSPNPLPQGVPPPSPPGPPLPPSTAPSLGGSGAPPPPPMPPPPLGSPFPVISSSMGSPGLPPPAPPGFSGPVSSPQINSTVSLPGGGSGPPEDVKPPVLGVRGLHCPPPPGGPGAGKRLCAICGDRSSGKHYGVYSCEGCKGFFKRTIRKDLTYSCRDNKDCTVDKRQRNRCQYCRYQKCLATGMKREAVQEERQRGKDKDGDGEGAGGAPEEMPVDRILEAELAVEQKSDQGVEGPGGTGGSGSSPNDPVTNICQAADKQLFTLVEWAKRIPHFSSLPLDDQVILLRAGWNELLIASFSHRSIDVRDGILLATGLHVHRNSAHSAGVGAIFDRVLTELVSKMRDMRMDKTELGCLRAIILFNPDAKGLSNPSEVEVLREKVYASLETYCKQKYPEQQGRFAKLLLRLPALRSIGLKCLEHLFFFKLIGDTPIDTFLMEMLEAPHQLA

[4] = test system: NcEcR (GAL4-EcR DEF with VP16-RXR partner); assay: Two-hybrid gene switch assay, luciferase reporter, NcEcR, mouse NIH3T3 cells
[5] = biological target: wild-type Aedes aegypti EcR (AaEcR; GAL4-EcR DEF with VP16-RXR-USP chimera) (Aedes aegypti, UniProt P49880); assay: Two-hybrid gene switch assay, luciferase reporter, wild-type AaEcR, mouse NIH3T3 cells; format: cell-based
wild-type Aedes aegypti EcR (AaEcR; GAL4-EcR DEF with VP16-RXR-USP chimera), sequence (P49880 with tags, fused parts or gaps limits assumed, change not shown): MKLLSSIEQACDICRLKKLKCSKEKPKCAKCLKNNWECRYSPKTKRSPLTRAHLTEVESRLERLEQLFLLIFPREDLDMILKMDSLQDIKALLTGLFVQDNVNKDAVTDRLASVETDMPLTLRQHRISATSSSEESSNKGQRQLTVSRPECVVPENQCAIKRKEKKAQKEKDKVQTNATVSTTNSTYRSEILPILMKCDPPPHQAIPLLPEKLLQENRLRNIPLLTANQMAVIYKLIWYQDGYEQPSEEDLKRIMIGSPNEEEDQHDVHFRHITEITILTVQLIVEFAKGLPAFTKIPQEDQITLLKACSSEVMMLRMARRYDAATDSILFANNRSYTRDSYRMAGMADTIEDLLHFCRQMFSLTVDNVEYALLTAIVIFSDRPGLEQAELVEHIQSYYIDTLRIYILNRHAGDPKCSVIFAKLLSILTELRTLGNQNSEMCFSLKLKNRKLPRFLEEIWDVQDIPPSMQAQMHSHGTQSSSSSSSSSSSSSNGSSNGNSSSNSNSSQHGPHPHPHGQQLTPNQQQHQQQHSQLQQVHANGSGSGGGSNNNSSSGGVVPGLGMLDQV

[6] = biological target: T3, MsEcR (GAL4-EcR DEF with VP16-RXR-USP chimera) (Manduca sexta, UniProt P49883); assay: Two-hybrid gene switch assay, luciferase reporter, MsEcR, mouse NIH3T3 cells
T3 sequence (P49883 1-556): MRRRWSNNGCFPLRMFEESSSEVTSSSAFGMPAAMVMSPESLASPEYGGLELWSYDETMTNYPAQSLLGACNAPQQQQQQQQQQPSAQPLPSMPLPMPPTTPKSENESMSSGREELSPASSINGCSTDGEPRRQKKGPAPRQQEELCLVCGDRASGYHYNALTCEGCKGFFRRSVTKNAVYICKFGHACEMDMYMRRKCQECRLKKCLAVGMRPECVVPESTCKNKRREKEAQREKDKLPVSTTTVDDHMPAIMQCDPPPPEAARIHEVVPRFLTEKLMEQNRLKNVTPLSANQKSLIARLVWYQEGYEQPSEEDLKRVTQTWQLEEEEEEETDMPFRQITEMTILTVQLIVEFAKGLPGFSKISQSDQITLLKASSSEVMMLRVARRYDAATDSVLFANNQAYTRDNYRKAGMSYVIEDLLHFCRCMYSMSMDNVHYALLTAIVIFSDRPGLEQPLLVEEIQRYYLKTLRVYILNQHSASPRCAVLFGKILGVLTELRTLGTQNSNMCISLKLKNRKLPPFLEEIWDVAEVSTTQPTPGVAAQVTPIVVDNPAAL
T3 sequence (P28702 1-533 partner): T2 sequence (P28702 1-533 partner)

[7] = biological target: T4, wild-type CfEcR (GAL4-CfEcR-DEF with VP16-RXR-USP chimera) (Choristoneura fumiferana, UniProt O77255); assay: Two-hybrid gene switch assay, luciferase reporter, wild-type CfEcR, mouse NIH3T3 cells
T4 sequence (O77255 219-541): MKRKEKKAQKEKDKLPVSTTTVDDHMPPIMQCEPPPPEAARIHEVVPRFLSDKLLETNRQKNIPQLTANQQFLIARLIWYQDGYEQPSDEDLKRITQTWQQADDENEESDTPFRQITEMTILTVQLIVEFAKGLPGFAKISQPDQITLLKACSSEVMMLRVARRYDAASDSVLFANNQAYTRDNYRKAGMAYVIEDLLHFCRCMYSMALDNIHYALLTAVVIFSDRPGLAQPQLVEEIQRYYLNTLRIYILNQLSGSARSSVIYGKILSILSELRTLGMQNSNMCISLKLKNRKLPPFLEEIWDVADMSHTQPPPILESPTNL
T4 sequence (P28702 1-533 partner): T2 sequence (P28702 1-533 partner)

[8] = biological target: BmEcR (GAL4-EcR DEF with VP16-RXR-USP chimera) (Bombyx mori, UniProt P49881); assay: Two-hybrid gene switch assay, luciferase reporter, BmEcR, mouse NIH3T3 cells; format: cell-based
BmEcR (GAL4-EcR DEF with VP16-RXR-USP chimera), sequence (P49881 other isoform, or with tags, fused parts or gaps, change not shown): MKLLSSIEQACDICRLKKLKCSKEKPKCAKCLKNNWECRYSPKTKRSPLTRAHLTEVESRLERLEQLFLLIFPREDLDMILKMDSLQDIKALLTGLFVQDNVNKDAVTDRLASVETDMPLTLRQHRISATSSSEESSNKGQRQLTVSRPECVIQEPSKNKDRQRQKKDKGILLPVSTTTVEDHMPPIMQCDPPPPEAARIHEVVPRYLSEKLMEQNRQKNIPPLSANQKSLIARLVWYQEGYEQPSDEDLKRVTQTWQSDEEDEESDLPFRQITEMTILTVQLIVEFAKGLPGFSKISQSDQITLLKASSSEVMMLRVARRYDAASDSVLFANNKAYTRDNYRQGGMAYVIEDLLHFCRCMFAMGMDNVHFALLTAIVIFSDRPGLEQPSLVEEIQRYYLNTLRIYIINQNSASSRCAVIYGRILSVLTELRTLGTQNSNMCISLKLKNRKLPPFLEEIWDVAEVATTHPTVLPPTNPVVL

[9] = biological target: T5, AmaEcR (GAL4-EcR DEF with VP16-RXR-USP chimera) (Amblyomma americanum, UniProt O44338); assay: Two-hybrid gene switch assay, luciferase reporter, AmaEcR, mouse NIH3T3 cells
T5 sequence (O44338 255-570): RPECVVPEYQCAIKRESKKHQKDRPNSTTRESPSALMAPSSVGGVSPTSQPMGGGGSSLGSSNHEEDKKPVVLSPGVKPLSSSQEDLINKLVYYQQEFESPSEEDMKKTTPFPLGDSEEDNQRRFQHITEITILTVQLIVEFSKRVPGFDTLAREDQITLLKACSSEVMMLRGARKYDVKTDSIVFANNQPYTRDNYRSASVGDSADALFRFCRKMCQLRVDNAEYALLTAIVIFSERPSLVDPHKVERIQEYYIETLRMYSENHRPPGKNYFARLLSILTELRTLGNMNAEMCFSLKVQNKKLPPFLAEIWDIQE
T5 sequence (P28702 1-533 partner): T2 sequence (P28702 1-533 partner)

[10] = EC50, FIG. 14A/14B, GAL4-EcR(DEF) with VP16-RXR-USP chimera
[11] = EC50, FIG. 14A/14B, GAL4-EcR(DEF)
[12] = EC50, FIG. 13A/13B, GAL4-EcR(DEF) with VP16-RXR-USP chimera
[13] = EC50, FIG. 16, GAL4-EcR (DEF) / VP16-RXR-USP chimera
[14] = EC50, FIG. 15, GAL4-EcR (DEF) / VP16-RXR-USP chimera
[15] = FIG. 14A/14B, GAL4-EcR(DEF) with VP16-RXR-USP chimera, read-out: EC50
[16] = FIG. 16, GAL4-EcR (DEF) / VP16-RXR-USP chimera, read-out: EC50

SMILES	EC50 [1, 10] [nM]	EC50 [2, 11] [µM]	EC50 [3, 10] [µM]	EC50 ([4]; FIG. 14A/14B, GAL4-EcR(DEF)) [nM]	EC50 [5, 10] [µM]	EC50 [6, 12] [µM]	EC50 [7] [µM]	EC50 ([8]; read-out: EC50) [µM]	EC50 [9, 10] [nM]	EC50 [9, 13] [nM]	EC50 [6, 14] [µM]	EC50 [1, 13] [nM]	EC50 ([2]; EC50, FIG. 16, GAL4-EcR (DEF)) [µM]	EC50 [3, 13] [µM]	EC50 [5, 15] [µM]	EC50 [5, 16] [µM]	EC50 [1, 16] [nM]	EC50 ([4]; FIG. 16, GAL4-EcR (DEF)) [nM]	EC50 ([1]; EC50, FIG. 4C) [nM]	EC50 ([8]; EC50, FIG. 13A/13B, BmEcR, GAL4-EcR(DEF) with VP16-RXR-USP chimera) [µM]
C=C(C)CC[C@@H](O)[C@](C)(O)[C@H]1CC[C@@]2(O)C3=CC(=O)[C@@H]4C[C@@H](O)[C@@H](O)C[C@]4(C)[C@H]3CC[C@]12C [listing 1 of 2 here]	912	1.4	0.382	6	0.024	–	–	–	–	–	–	–	–	–	–	–	–	–	–	–
C=C(C)CC[C@@H](O)[C@](C)(O)[C@H]1CC[C@@]2(O)C3=CC(=O)[C@@H]4C[C@@H](O)[C@@H](O)C[C@]4(C)[C@H]3CC[C@]12C [listing 2 of 2 here]	–	–	–	–	–	0.608	~12	6.28	–	–	–	–	–	–	–	–	–	–	–	–
CC(C)(O)CC[C@H]1OC(C)(C)O[C@]1(C)[C@H]1CC[C@@]2(O)C3=CC(=O)[C@@H]4C[C@@H](O)[C@@H](O)C[C@]4(C)[C@H]3CC[C@]12C [20-hydroxyecdysone-20,22-acetonide]	> 33000	> 33	> 33	~10000	–	~12	–	–	~20000	~1000	~12	~12000	~3	8.57	~12	2.38	–	–	–	–
CC(C)(O)CCC(O)C(C)(O)C1CCC2(O)C3=CC(=O)C4CC(O)CCC4(C)C3CCC12C (stereo not shown) [Compound 2-deoxy-20-hydroxyecdysone]	> 33000	~20	~15	–	–	~10	> 33	> 33	~5000	–	–	–	–	–	~5	–	–	–	–	–
CC(C)(O)CC[C@@H](O)[C@](C)(O)[C@H]1CC[C@@]2(O)C3=CC(=O)[C@@H]4C[C@@H](O)[C@@H](O)C[C@]4(C)[C@H]3CC[C@]12C [Compound 20-hydroxyecdysone]	–	~15	~5	~800	–	–	–	–	–	~800	–	–	–	5.35	–	4.38	~15000	600	–	–
CC(C)CC[C@@H](O)[C@](C)(O)[C@H]1CC[C@@]2(O)C3=CC(=O)[C@]4(O)C[C@@H](O)[C@@H](O)C[C@]4(C)[C@H]3[C@H](O)C[C@]12C [Mur A, muristerone A, reference compound]	58	~5	0.829	–	0.023	0.66	–	–	128	–	–	–	–	–	–	–	–	–	112	2.98
CC(C)CC[C@@H](O)[C@](C)(O)[C@H]1CC[C@@]2(O)C3=CC(=O)[C@@H]4C[C@@H](O)[C@@H](O)C[C@]4(C)[C@H]3CC[C@]12C [PoA, ponasterone A, reference compound]	–	0.044	0.031	–	–	–	8.42	–	–	–	0.17	840	0.07	–	–	–	–	–	113	–
